Each structure is given as a SMILES string.

The subject of the assay is NL-RLuc virus. The assay is described as follows: Inhibition of HIV replication (NL-RLuc virus, luciferase readout in MT-2 cells). The format is cell-based. As to conditions: Human immunodeficiency virus 1, MT2, 120 h, MT-2 cells infected with NL-RLuc virus, 5 days of incubation, 10% FBS, at least 2 experiments. In outline:
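EC50 derived via median effect equation from at least 2 experiments, using luciferase expression as virus-growth readout. Replication-competent NL-RLuc reporter virus (nef partly replaced by Renilla luciferase) infected MT-2 cells with serial compound dilutions; 5-day incubation in RPMI 1640 plus 10% FBS.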
In the case of `Cc1ncc(-c2cnc(OC(C)CC(C)C)c(F)c2)c(N2CCC(C)(C)CC2)c1[C@H](OC(C)(C)C)C(=O)O` (stereo partly drawn) [Example 384, (2S)-2-(tert-butoxy)-2-[4-(4,4-dimethylpiperidin-1-yl)-5′-fluoro-6-methyl-6′-[(4-methylpentan-2-yl)oxy]-[3,3′-bipyridine]-5-yl]acetic acid], the response was half-maximal at 9 nM (EC50).

Compound `Cc1ncc(-c2ccc(O[C@@H](C)C(C)C)cn2)c(N2CCC(C)(C)CC2)c1[C@H](OC(C)(C)C)C(=O)O` [Example 311, (2S)-2-(tert-butoxy)-2-[4′-(4,4-dimethylpiperidin-1-yl)-6′-methyl-5-{[(2S)-3-methylbutan-2-yl]oxy}-[2,3′-bipyridine]-5′-yl]acetic acid] had an EC50 of 1 nM. As to `Cc1ncc(-c2ccc(F)c(F)c2F)c(N2CCC(C)(C)CC2)c1[C@H](OC(C)(C)C)C(=O)O` [Example 162, (2S)-2-(tert-Butoxy)-2-[4-(4,4-dimethylpiperidin-1-yl)-2-methyl-5-(2,3,4-trifluorophenyl)pyridin-3-yl]acetic acid], a half-maximal effect (EC50) was put at 7 nM. As for `Cc1ncc(-c2cnc(O[C@@H](C)c3ccccc3)c(F)c2)c(N2CCC(C)(C)CC2)c1[C@H](OC(C)(C)C)C(=O)O` [Example 400, (2S)-2-(tert-butoxy)-2-[4-(4,4-dimethylpiperidin-1-yl)-5′-fluoro-6-methyl-6′-[(1S)-1-phenylethoxy]-[3,3′-bipyridine]-5-yl]acetic acid], a half-maximal response (EC50) required 6 nM. Compound `Cc1nc(Nc2ccc(F)cn2)c(-c2ccc(OCCc3ccc(F)cc3)cc2)c(N2CCC(C)(C)CC2)c1[C@H](OC(C)(C)C)C(=O)O` [Example 83, (S)-2-(tert-Butoxy)-2-(4-(4,4-dimethylpiperidin-1-yl)-5-(4-(4-fluorophenethoxy)phenyl)-6-((5-fluoropyridin-2-yl)amino)-2-methylpyridin-3-yl)acetic acid] came in with an EC50 of 5 nM. This EC50 and that of the compound before are within 1.5-fold of each other. Consider `CNc1nc(C)c([C@H](OC(C)(C)C)C(=O)O)c(N2CCC(C)(C)CC2)c1-c1ccc(OCCc2ccc(F)cc2)c(F)c1` [Example 108, (S)-2-(tert-Butoxy)-2-(4-(4,4-dimethylpiperidin-1-yl)-5-(3-fluoro-4-(4-fluorophenethoxy)phenyl)-2-methyl-6-(methylamino)pyridin-3-yl)acetic acid], for which a half-maximal effect (EC50) was put at 3 nM. For the compound `Cc1ncc(-c2ccc(F)nc2OCC(C)C)c(N2CCC(C)(C)CC2)c1[C@H](OC(C)(C)C)C(=O)O` [Example 435, (2S)-2-tert-Butoxy-2-(4-(4,4-dimethylpiperidin-1-yl)-6′-fluoro-2′-isobutoxy-6-methyl-3, 3′-bipyridin-5-yl)acetic acid], the EC50 is 501 nM. As for `Cc1nc(OCCc2cccc(F)c2)ccc1-c1cnc(C)c([C@H](OC(C)(C)C)C(=O)O)c1N1CCC(C)(C)CC1` [Example 261, (S)-2-(tert-Butoxy)-2-(4-(4,4-dimethylpiperidin-1-yl)-6′-(3-fluorophenethoxy)-2′,6-dimethyl-[3, 3′-bipyridin]-5-yl)acetic acid], the concentration for a half-maximal effect (EC50) is 28 nM.

In the case of `Cc1ncc(-c2ccc(OCCc3cccc(F)c3)c(F)c2)c(N2CCC(C)(C)CC2)c1[C@H](OC(C)(C)C)C(=O)O` [Example 257, (S)-2-(tert-Butoxy)-2-(4-(4,4-dimethylpiperidin-1-yl)-5-(3-fluoro-4-(3-fluorophenethoxy)phenyl)-2-methylpyridin-3-yl)acetic acid], the EC50 stood at 1 nM. In turn, `Cc1ncc(-c2cccc(F)c2C)c(N2CCC(C)(C)CC2)c1[C@H](OC(C)(C)C)C(=O)O` [Example 160, (2S)-2-(tert-Butoxy)-2-[4-(4,4-dimethylpiperidin-1-yl)-5-(3-fluoro-2-methylphenyl)-2-methylpyridin-3-yl]acetic acid] came in with an EC50 of 13 nM.

Compound `Cc1ncc(-c2ccc(OCCc3cc(F)c(F)cc3F)cn2)c(N2CCC(C)(C)CC2)c1[C@H](OC(C)(C)C)C(=O)O` [Example 353, (2S)-2-(tert-butoxy)-2-[4′-(4,4-dimethylpiperidin-1-yl)-6′-methyl-5-[2-(2,4,5-trifluorophenyl)ethoxy]-[2,3′-bipyridine]-5′-yl]acetic acid] came in with an EC50 of 0.8 nM. Consider `Cc1ncc(-c2ccc(O[C@H](C)c3ccccc3)cn2)c(N2CCC(C)(C)CC2)c1[C@H](OC(C)(C)C)C(=O)O` [Example 350, (2S)-2-(tert-butoxy)-2-[4′-(4,4-dimethylpiperidin-1-yl)-6′-methyl-5-[(1R)-1-phenylethoxy]-[2,3′-bipyridine]-5′-yl]acetic acid], for which the half-maximal effective concentration (EC50) was 3 nM.

Take `Cc1ncc(-c2cnc(OCCc3ccccc3F)c(Cl)c2)c(N2CCC(C)(C)CC2)c1[C@H](OC(C)(C)C)C(=O)O` [Example 252, (S)-2-(tert-Butoxy)-2-(5′-chloro-4-(4,4-dimethylpiperidin-1-yl)-6′-(2-fluorophenethoxy)-6-methyl-[3, 3′-bipyridin]-5-yl)acetic acid]: the EC50 was 1 nM.

Compound `Cc1ncc(-c2ccc(OCC(C)C)c(C(F)(F)F)n2)c(N2CCC(C)(C)CC2)c1[C@H](OC(C)(C)C)C(=O)O` [Example 275, (S)-2-(tert-Butoxy)-2-(4′-(4,4-dimethylpiperidin-1-yl)-5-isobutoxy-6′-methyl-6-(trifluoromethyl)-[2, 3′-bipyridin]-5′-yl)acetic acid] gave an EC50 of 8 nM. The value for `Cc1cccc(CCOc2ncc(-c3cnc(C)c([C@H](OC(C)(C)C)C(=O)O)c3N3CCC(C)(C)CC3)cc2F)c1` [Example 372, (2S)-2-(tert-butoxy)-2-[4-(4,4-dimethylpiperidin-1-yl)-5′-fluoro-6-methyl-6′-[2-(3-methylphenyl)ethoxy]-[3,3′-bipyridine]-5-yl]acetic acid] was 1 nM.

`Cc1ncc(-c2ccc(O[C@@H](C)c3ccccc3)cn2)c(N2CCC(C)(C)CC2)c1[C@H](OC(C)(C)C)C(=O)O` [Example 349, (2S)-2-(tert-butoxy)-2-[4′-(4,4-dimethylpiperidin-1-yl)-6′-methyl-5-[(1S)-1-phenylethoxy]-[2,3′-bipyridine]-5′-yl]acetic acid] showed an EC50 of 1 nM. For the compound `Cc1cc(C)n(-c2nc(C)c([C@H](OC(C)(C)C)C(=O)O)c(N3CCC(C)(C)CC3)c2-c2ccc(OCCc3ccc(F)cc3)cc2)n1` [Example 59, (S)-2-(tert-Butoxy)-2-(6-(3,5-dimethyl-1H-pyrazol-1-yl)-4-(4,4-dimethylpiperidin-1-yl)-5-(4-(4-fluorophenethoxy)phenyl)-2-methylpyridin-3-yl)acetic acid], the midpoint of the response, the EC50, lay at 3 nM. Consider `Cc1ncc(-c2cnc(OCCc3ccccc3Cl)c(F)c2)c(N2CCC(C)(C)CC2)c1[C@H](OC(C)(C)C)C(=O)O` [Example 238, (S)-2-(tert-Butoxy)-2-(6′-(2-chlorophenethoxy)-4-(4,4-dimethylpiperidin-1-yl)-5′-fluoro-6-methyl-[3, 3′-bipyridin]-5-yl)acetic acid], for which the concentration for a half-maximal effect (EC50) is 2 nM. `Cc1ncc(-c2cc(F)c(OCCc3ccc(F)cc3)c(F)c2)c(N2CCC(C)(C)CC2)c1[C@H](OC(C)(C)C)C(=O)O` [Example 127, (S)-2-(tert-Butoxy)-2-(5-(3,5-difluoro-4-(4-fluorophenethoxy)phenyl)-4-(4,4-dimethylpiperidin-1-yl)-2-methylpyridin-3-yl)acetic acid] displayed an EC50 of 4 nM. As for `Cc1ncc(-c2ccc(OCc3ccccc3)cn2)c(N2CCC(C)(C)CC2)c1[C@H](OC(C)(C)C)C(=O)O` [Example 288, (S)-2-(5-(Benzyloxy)-4′-(4,4-dimethylpiperidin-1-yl)-6′-methyl-[2, 3′-bipyridin]-5′-yl)-2-(tert-butoxy)acetic acid], the midpoint of the response, the EC50, lay at 1 nM. Regarding `COc1ccc(-c2cnc(C)c([C@H](OC(C)(C)C)C(=O)O)c2N2CCC(C)(C)CC2)c(F)c1` [Example 181, (2S)-2-(tert-Butoxy)-2-[4-(4,4-dimethylpiperidin-1-yl)-5-(2-fluoro-4-methoxyphenyl)-2-methylpyridin-3-yl]acetic acid], the EC50 was 6 nM. Compound `Cc1ncc(-c2ncc3ccccc3n2)c(N2CCC(C)(C)CC2)c1[C@H](OC(C)(C)C)C(=O)O` [Example 267, (S)-2-(tert-Butoxy)-2-(4-(4,4-dimethylpiperidin-1-yl)-2-methyl-5-(quinazolin-2-yl)pyridin-3-yl)acetic acid] displayed an EC50 of 9 nM. Against the preceding compound, the EC50 is about 1.5-fold higher. With `COc1ccc(-c2cnc(C)c([C@H](OC(C)(C)C)C(=O)O)c2N2CCC(C)(C)CC2)nc1` [Example 229, (S)-2-(tert-Butoxy)-2-(4′-(4,4-dimethylpiperidin-1-yl)-5-methoxy-6′-methyl-[2, 3′-bipyridin]-5′-yl)acetic acid], the EC50 stood at 13 nM. Take `Cc1cc(F)c(F)c(-c2cnc(C)c([C@H](OC(C)(C)C)C(=O)O)c2N2CCC(C)(C)CC2)c1` [Example 170, (2S)-2-(tert-Butoxy)-2-[5-(2,3-difluoro-5-methylphenyl)-4-(4,4-dimethylpiperidin-1-yl)-2-methylpyridin-3-yl]acetic acid]: the EC50 is 19 nM.

In turn, `Cc1ncc(-c2ccc(OCCc3c(F)cccc3Cl)cn2)c(N2CCC(C)(C)CC2)c1[C@H](OC(C)(C)C)C(=O)O` [Example 305, (2S)-2-(tert-butoxy)-2-{5-[2-(2-chloro-6-fluorophenyl)ethoxy]-4′-(4,4-dimethylpiperidin-1-yl)-6′-methyl-[2,3′-bipyridine]-5′-yl}acetic acid] registered an EC50 of 1 nM.

As to `Cc1ncc(-c2ccc(OCCCC(C)(C)C)cn2)c(N2CCC(C)(C)CC2)c1[C@H](OC(C)(C)C)C(=O)O` [Example 351, (2S)-2-(tert-butoxy)-2-{5-[(4,4-dimethylpentyl)oxy]-4′-(4,4-dimethylpiperidin-1-yl)-6′-methyl-[2,3′-bipyridine]-5′-yl}acetic acid], the EC50 came to 0.8 nM.

In turn, `CCC(C)COc1ncc(-c2cnc(C)c([C@H](OC(C)(C)C)C(=O)O)c2N2CCC(C)(C)CC2)cc1F` (stereo partly drawn) [Example 386, (2S)-2-(tert-butoxy)-2-[4-(4,4-dimethylpiperidin-1-yl)-5′-fluoro-6-methyl-6′-(2-methylbutoxy)-[3,3′-bipyridine]-5-yl]acetic acid] registered a concentration for a half-maximal effect (EC50) of 6 nM.

These data come from US20200055839A1 (priority 2017, published 2020).
